Results from patent publication US20190375778A1, “ADENOSINE DERIVATIVES FOR USE IN THE TREATMENT OF CANCER” (NuCana plc, priority 2016, published 2019).
Read-outs that look alike come from different tables or passages of the source.

Tests used:
RPMI-8226 = test: CellTiterGlo viability assay, RPMI-8226; assay type: cell-based, Human; settings: for IC50: read-out: IC50 RPMI-8226
Method in brief: (§1)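 Luminescent ATP-based readout (CellTiterGlo) followed a 72-hour incubation at 37 °C with compound. Final DMSO was 0.5%, and the dilution series ran from 198 μM to 19.9 nM over nine points.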

SW620 = test: CellTiterGlo viability assay, SW620; assay type: cell-based; settings: Homo sapiens, read-out: IC50 SW620
Procedure: (§2) In vitro viability assay were performed to assess the effects of compounds on cell viability in selected cell lines over ˜72 hrs using the CellTiterGlo (CTG, Promega-G7573) assay. The tests were performed in duplicates with treatment of compounds at 9 points, 3.16 folds titration in 96 well plates over ˜72 hrs. The compound starting concentrations were 198 μM. Cell viability assay using CellTiterGlo in 96-well plate were performed. Compound treatment 72 hrs, standard growth conditions, duplicates. Compounds were dissolved to 40 mM with thawed […]. Compounds were serially diluted at 3.16 fold in thawed DMSO, and warmed to 37° C. before being dissolved in media (2 μl+200 μl). After compounds were dissolved in media, media containing compounds were warmed to 37° C. in incubator and then compounds in media were added to cell plates (50 μl+50 μl) in duplicates. The compounds' final concentrations were from […] to 19.9 nM. All compound solubilities were checked and recorded again, then the plates were transferred to CO2 tissue culture incubator immediately and incubated for 3 days. DMSO final concentration is 0.5%.

CCRFCEM = test: CellTiterGlo viability assay, CCRFCEM; assay type: cell-based; settings: for IC50: read-out: IC50 CCRFCEM
Method in brief: as §1

BxPC-3 = test: CellTiterGlo viability assay, BxPC-3; assay type: cell-based; settings: Homo sapiens, read-out: IC50 BxPC-3
Procedure: as §2

HepG2 = test: CellTiterGlo viability assay, HepG2; assay type: cell-based; settings: for IC50: read-out: IC50 HepG2
Procedure: as §2

Z138 = test: CellTiterGlo viability assay, Z138; assay type: cell-based; settings: for IC50: read-out: IC50 Z138
Procedure: as §2

RL = test: CellTiterGlo viability assay, RL; assay type: cell-based; settings: for IC50: read-out: IC50 RL
Method in brief: as §1

K562 = test: CellTiterGlo viability assay, K562; assay type: cell-based; settings: for IC50: read-out: IC50 K562
Method in brief: as §1

human T-lymphocyte CEM = test: Cell proliferation (Coulter count) assay, CEM; assay type: cell-based; settings: 72 h, read-out: absolute IC50, CEM
Method in brief: (§3)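 Cells grown in DMEM with 10% FBS. HeLa seeded at 10 000 cells/well, compound added after 24 h, counted day 5; L1210 and CEM seeded at 60 000 cells/well with compound, counted after 48 h and 72 h respectively. IC50 is concentration halving proliferation by Coulter count.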

MOLT-4 = test: CellTiterGlo viability assay, MOLT-4; assay type: cell-based; settings: for IC50: read-out: IC50 MOLT-4
Procedure: as §2

[1] = system: human cervix carcinoma HeLa cells; test: Cell proliferation (Coulter count) assay, HeLa; assay type: cell-based; settings: 120 h, cell count on day 5, read-out: absolute IC50, HeLa
Method in brief: as §3

HS445 = test: CellTiterGlo viability assay, HS445; assay type: cell-based; settings: for IC50: read-out: IC50 HS445
Procedure: as §2

HL-60 = test: CellTiterGlo viability assay, HL-60; assay type: cell-based; settings: for IC50: read-out: IC50 HL-60
Method in brief: as §1

HT29 = test: CellTiterGlo viability assay, HT29; assay type: cell-based; settings: for IC50: read-out: IC50 HT29
Procedure: as §2

NCI-H929 = test: CellTiterGlo viability assay, NCI-H929; assay type: cell-based; settings: Homo sapiens, read-out: IC50 NCI-H929
Method in brief: as §1

Jurkat = test: CellTiterGlo viability assay, Jurkat; assay type: cell-based; settings: Homo sapiens, read-out: IC50 Jurkat
Procedure: as §2

Structure (SMILES): C[C@H](NP(=O)(OC[C@H]1O[C@@H](n2c(Cl)nc3c(N)ncnc32)C(O)C1O)Oc1cccc2ccccc12)C(=O)OCc1ccccc1 (stereo partly drawn) [Compound D, (2S)-Benzyl 2-(((((2R,3S,4R,5R)-5-(6-amino-8-chloro-9H-purin-9-yl)-3,4-dihydroxy-tetrahydrofuran-2-yl)methoxynaphthalene-1-yloxy)phosphoryl)amino)propanoate]
- IC50 (RPMI-8226; Homo sapiens, RPMI-8226, 72 h): 0.1 to 5 µM
- IC50 (SW620; SW-620, 72 h): 0.1 to 5 µM
- IC50 (CCRFCEM; Homo sapiens, CCRF-CEM, 72 h): 0.1 to 5 µM
- IC50 (BxPC-3; BXPC-3, 72 h): 5 to 15 µM
- IC50 (HepG2; Homo sapiens, HepG2, 72 h): 0.1 to 5 µM
- IC50 (Z138; Homo sapiens, Z-138, 72 h): 0.1 to 5 µM
- IC50 (RL; Homo sapiens, RL, 72 h): 5 to 15 µM
- IC50 (K562; Homo sapiens, K562, 72 h): 0.1 to 5 µM
- IC50 (human T-lymphocyte CEM): 0.1 to 5 µM
- IC50 (MOLT-4; Homo sapiens, MOLT-4, 72 h): 0.1 to 5 µM
- IC50 [1]: 0.1 to 5 µM
- IC50 (HS445; Hs 445, 72 h): 5 to 15 µM
- IC50 (HL-60; Homo sapiens, HL-60, 72 h): 5 to 15 µM
- IC50 (HT29; Homo sapiens, HT-29, 72 h): 0.1 to 5 µM
- IC50 (NCI-H929; NCI-H929, 72 h): 0.1 to 5 µM
- IC50 (Jurkat; 72 h): 0.1 to 5 µM

Structure (SMILES): C[C@H](NP(=O)(OC[C@H]1O[C@@H](n2c(Cl)nc3c(N)ncnc32)[C@H](O)[C@@H]1O)Oc1ccccc1)C(=O)OCc1ccccc1 (mixture of isomers) [C, (2S)-Benzyl 2-(((((2R,3S,4R,5R)-5-(6-amino-8-chloro-9H-purin-9-yl)-3,4-dihydroxy-tetrahydrofuran-2-yl)methoxy)(phenoxy)phosphoryl)amino)propanoate]
- IC50 (RPMI-8226; Homo sapiens, RPMI-8226, 72 h): 5 to 15 µM
- IC50 (SW620; SW-620, 72 h): 15 to 100 µM
- IC50 (CCRFCEM; Homo sapiens, CCRF-CEM, 72 h): 5 to 15 µM
- IC50 (BxPC-3; BXPC-3, 72 h): 15 to 100 µM
- IC50 (HepG2; Homo sapiens, HepG2, 72 h): 15 to 100 µM
- IC50 (Z138; Homo sapiens, Z-138, 72 h): 0.1 to 5 µM
- IC50 (RL; Homo sapiens, RL, 72 h): 15 to 100 µM
- IC50 (K562; Homo sapiens, K562, 72 h): 15 to 100 µM
- IC50 (human T-lymphocyte CEM): 15 to 100 µM
- IC50 (MOLT-4; Homo sapiens, MOLT-4, 72 h): 0.1 to 5 µM
- IC50 [1]: 5 to 15 µM
- IC50 (HS445; Hs 445, 72 h): > 100 µM
- IC50 (HL-60; Homo sapiens, HL-60, 72 h): 5 to 15 µM
- IC50 (HT29; Homo sapiens, HT-29, 72 h): 5 to 15 µM
- IC50 (NCI-H929; NCI-H929, 72 h): 5 to 15 µM
- IC50 (Jurkat; 72 h): 15 to 100 µM

Structure (SMILES): Nc1ncnc2c1nc(Cl)n2[C@@H]1O[C@H](COP(=O)(NCC(=O)OCc2ccccc2)Oc2ccccc2)[C@@H](O)[C@H]1O (mixture of isomers) [Compound B, Benzyl 2-(((((2R,3S,4R,5R)-5-(6-amino-8-chloro-9H-purin-9-yl)-3,4-dihydroxytetra-hydrofuran-2-yl)methoxy)(phenoxy)phosphoryl)amino)acetate]
- IC50 (RPMI-8226; Homo sapiens, RPMI-8226, 72 h): 0.1 to 5 µM
- IC50 (SW620; SW-620, 72 h): 0.1 to 5 µM
- IC50 (CCRFCEM; Homo sapiens, CCRF-CEM, 72 h): 0.1 to 5 µM
- IC50 (BxPC-3; BXPC-3, 72 h): 5 to 15 µM
- IC50 (HepG2; Homo sapiens, HepG2, 72 h): 0.1 to 5 µM
- IC50 (Z138; Homo sapiens, Z-138, 72 h): 0.1 to 5 µM
- IC50 (RL; Homo sapiens, RL, 72 h): 5 to 15 µM
- IC50 (K562; Homo sapiens, K562, 72 h): 0.1 to 5 µM
- IC50 (human T-lymphocyte CEM): 5 to 15 µM
- IC50 (MOLT-4; Homo sapiens, MOLT-4, 72 h): 0.1 to 5 µM
- IC50 [1]: 0.1 to 5 µM
- IC50 (HS445; Hs 445, 72 h): 5 to 15 µM
- IC50 (HL-60; Homo sapiens, HL-60, 72 h): 0.1 to 5 µM
- IC50 (HT29; Homo sapiens, HT-29, 72 h): 0.1 to 5 µM
- IC50 (NCI-H929; NCI-H929, 72 h): 5 to 15 µM
- IC50 (Jurkat; 72 h): 0.1 to 5 µM

Structure (SMILES): Nc1ncnc2c1nc(Cl)n2[C@@H]1O[C@H](CO)[C@@H](O)[C@H]1O [8-chloroadenosine, 8-Chloroadenosine, reference compound]
- Top in. % RPMI-8226 (RPMI-8226): 96.2%
- IC50 (RPMI-8226; Homo sapiens, RPMI-8226, CellTiterGlo, 72 hrs): 0.1 to 5 µM
- EC50 (RPMI-8226; Homo sapiens, RPMI-8226, read-out: Ab EC50 (μM) RPMI-8226): 1.34 µM
- IC50 (SW620; SW-620, CellTiterGlo, 72 hrs): 0.1 to 5 µM
- Top in. % CCRF-CEM (CCRFCEM): 82.3%
- IC50 (CCRFCEM; Homo sapiens, CCRF-CEM, CellTiterGlo, 72 hrs): 0.1 to 5 µM
- EC50 (CCRFCEM; Homo sapiens, CCRF-CEM, read-out: Ab EC50 (μM) CCRF-CEM): 2.27 µM
- IC50 (BxPC-3; BXPC-3, CellTiterGlo, 72 hrs): 5 to 15 µM
- Top in. % HepG2 (HepG2): 78.5%
- IC50 (HepG2; Homo sapiens, HepG2, CellTiterGlo, 72 hrs): 0.1 to 5 µM
- EC50 (HepG2; Homo sapiens, HepG2, read-out: Ab EC50 (μM) HepG2): 1.13 µM
- Top in. % Z-138 (Z138): 88.7%
- IC50 (Z138; Homo sapiens, Z-138, CellTiterGlo, 72 hrs): 0.1 to 5 µM
- EC50 (Z138; Homo sapiens, Z-138, read-out: Ab EC50 (μM) Z-138): 1.44 µM
- Top in. % RL (RL): 87.3%
- IC50 (RL; Homo sapiens, RL, CellTiterGlo, 72 hrs): 5 to 15 µM
- EC50 (RL; Homo sapiens, RL, read-out: Ab EC50 (μM) RL): 4.39 µM
- Top in. % K562 (K562): 82.0%
- IC50 (K562; Homo sapiens, K562, CellTiterGlo, 72 hrs): 0.1 to 5 µM
- EC50 (K562; Homo sapiens, K562, read-out: Ab EC50 (μM) K562): 11.8 µM
- IC50 (human T-lymphocyte CEM): 0.1 to 5 µM
- Top in. % MOLT-4 (MOLT-4): 76.0%
- IC50 (MOLT-4; Homo sapiens, MOLT-4, CellTiterGlo, 72 hrs): 0.1 to 5 µM
- EC50 (MOLT-4; Homo sapiens, MOLT-4, read-out: Ab EC50 (μM) MOLT-4): 3.27 µM
- IC50 [1]: 0.1 to 5 µM
- Top in. % HS445 (HS445): 78.1%
- IC50 (HS445; Hs 445, CellTiterGlo, 72 hrs): 5 to 15 µM
- EC50 (HS445; Hs 445, read-out: Ab EC50 (μM) HS445): 4.5 µM
- Top in. % HL-60 (HL-60): 97.1%
- IC50 (HL-60; Homo sapiens, HL-60, CellTiterGlo, 72 hrs): 0.1 to 5 µM
- EC50 (HL-60; Homo sapiens, HL-60, read-out: Ab EC50 (μM) HL-60): 10.2 µM
- Top in. % HT29 (HT29): 80.2%
- IC50 (HT29; Homo sapiens, HT-29, CellTiterGlo, 72 hrs): 0.1 to 5 µM
- EC50 (HT29; Homo sapiens, HT-29, read-out: Ab EC50 (μM) HT29): 1.35 µM
- IC50 (NCI-H929; NCI-H929, CellTiterGlo, 72 hrs): 0.1 to 5 µM
- IC50 (Jurkat; CellTiterGlo, 72 hrs): 0.1 to 5 µM

Structure (SMILES): CC(C)C[C@H](NP(=O)(OC[C@H]1O[C@@H](n2c(Cl)nc3c(N)ncnc32)C(O)C1O)Oc1ccccc1)C(=O)OCc1ccccc1 (stereo partly drawn) [V, 5′-([(Benzyloxy-L-leucin-N-yl)-phenyl]-phosphatyl) 8-chloroadenosine]
- IC50 (RPMI-8226; Homo sapiens, RPMI-8226, 72 h): 0.1 to 5 µM
- IC50 (SW620; SW-620, 72 h): 0.1 to 5 µM
- IC50 (CCRFCEM; Homo sapiens, CCRF-CEM, 72 h): 5 to 15 µM
- IC50 (BxPC-3; BXPC-3, 72 h): 5 to 15 µM
- IC50 (HepG2; Homo sapiens, HepG2, 72 h): 0.1 to 5 µM
- IC50 (Z138; Homo sapiens, Z-138, 72 h): 0.1 to 5 µM
- IC50 (RL; Homo sapiens, RL, 72 h): 15 to 100 µM
- IC50 (K562; Homo sapiens, K562, 72 h): 0.1 to 5 µM
- IC50 (MOLT-4; Homo sapiens, MOLT-4, 72 h): 0.1 to 5 µM
- IC50 [1]: 0.1 to 5 µM
- IC50 (HS445; Hs 445, 72 h): 15 to 100 µM
- IC50 (HL-60; Homo sapiens, HL-60, 72 h): 5 to 15 µM
- IC50 (HT29; Homo sapiens, HT-29, 72 h): 0.1 to 5 µM
- IC50 (NCI-H929; NCI-H929, 72 h): 0.1 to 5 µM
- IC50 (Jurkat; 72 h): 5 to 15 µM
